Biological target: LSD-1 enzyme (Homo sapiens (Human), UniProt O60341)
Assay: LANCE LSD1/KDM1A demethylase assay (LSD1 histone demethylase biochemical assay)
Settings: 1 nM LSD-1 enzyme, 1 hour preincubation at 25° C., 0.4 μM Biotin-labeled Histone H3 peptide substrate
Protocol: LSD1 Histone Demethylase Biochemical Assay
LANCE LSD1/KDM1A demethylase assay-10 μL of 1 nM LSD-1 enzyme (ENZO BML-SE544-0050) in the assay buffer (50 mM Tris, pH 7.5, 0.01% Tween-20, 25 mM NaCl, 5 mM DTT) were preincubated for 1 hour at 25° C. with 0.8 μL compound/DMSO dotted in black 384 well polystyrene plates. […] Reactions were stopped by addition of 10 μL 1× LANCE Detection Buffer (PerkinElmer CR97-100) supplemented with 1.5 nM Eu-anti-unmodified H3K4 Antibody (PerkinElmer TRF0404), and 225 nM LANCE Ultra Streptavidin (PerkinElmer TRF102) along with 0.9 mM Tranylcypromine-HCl (Millipore 616431). After stopping the reactions plates were incubated for 30 minutes and read on a PHERAstar FS plate reader (BMG Labtech).

| SMILES | IC50 |
| --- | --- |
| Cc1cc(-c2c(-c3ccc(C#N)cc3)nc(OC[C@@H]3CCCN(C)C3)c3cncn23)cnc1C [Example 86, 4-(5-(5,6-dimethylpyridin-3-yl)-8-{[(3R)-1-methylpiperidin-3-yl]methoxy}imidazo[1,5-a]pyrazin-6-yl)benzonitrile] | ≤ 50 nM |
| COC(=O)N(C)c1ccc(-c2c(-c3ccc(C#N)cc3)nc(OC[C@@H]3CCCN(C)C3)c3cncn23)cc1F [Example 87, (R)-methyl (4-(6-(4-cyanophenyl)-8-((1-methylpiperidin-3-yl)methoxy)imidazo[1,5-a]pyrazin-5-yl)-2-fluorophenyl)(methyl)carbamate] | ≤ 50 nM |
| CCN1CCC[C@@H](COc2cc(-c3ccc(C#N)cc3)c(-c3cc(C)c(CO)c(F)c3)n3cncc23)C1 [Example 128, 4-{8-{[(3R)-1-ethylpiperidin-3-yl]methoxy}-5-[3-fluoro-4-(hydroxymethyl)-5-methylphenyl]imidazo[1,5-a]pyridin-6-yl}benzonitrile] | ≤ 50 nM |
| CN1CCC[C@@H](COc2cc(-c3ccc(C#N)cc3)c(-c3ccc4c(c3)OCC(=O)N4C)n3cncc23)C1 [Example 65, (R)-4-(5-(4-methyl-3-oxo-3,4-dihydro-2H-benzo[b][1,4]oxazin-7-yl)-8-((1-methylpiperidin-3-yl)methoxy)imidazo[1,5-a]pyridin-6-yl)benzonitrile] | ≤ 50 nM |
| Cc1cc(-c2c(-c3ccc(C#N)cc3)cc(OC[C@@H]3CCCN(C)C3)c3cncn23)cc(F)c1CO [Example 75, 4-(5-[3-fluoro-4-(hydroxymethyl)-5-methylphenyl]-8-{[(3R)-1-methylpiperidin-3-yl]methoxy}imidazo[1,5-a]pyridin-6-yl)benzonitrile] | ≤ 50 nM |
| CN(C)C1CCN(c2nc(-c3ccc(C#N)cc3)c(-c3ccc4c(c3F)n(C)c(=O)n4C)n3cncc23)CC1 [Example 109, 4-[8-[4-(dimethylamino)piperidin-1-yl]-5-(4-fluoro-1,3-dimethyl-2-oxo-2,3-dihydro-1H-benzimidazol-5-yl)imidazo[1,5-a]pyrazin-6-yl]benzonitrile] | ≤ 50 nM |
| CN1CCC[C@@H](COc2cc(-c3ccc(C#N)cc3)c(-c3cnn(C4CCC4)c3)n3cncc23)C1 [Example 134, 4-(5-(1-cyclobutyl-1H-pyrazol-4-yl)-8-{[(3R)-1-methylpiperidin-3-yl]methoxy}imidazo[1,5-a]pyridin-6-yl)benzonitrile] | ≤ 50 nM |
| COC(=O)N(C)c1ccc(-c2c(-c3ccc(C#N)cc3)nc(N3CCC(N(C)C)CC3)c3cncn23)cc1 [Example 95, methyl (4-(6-(4-cyanophenyl)-8-(4-(dimethylamino)piperidin-1-yl)imidazo[1,5-a]pyrazin-5-yl)phenyl)(methyl)carbamate] | ≤ 50 nM |
| COc1ncc(-c2c(-c3ccc(C#N)cc3)nc(N3CCC(N(C)C)CC3)c3cncn23)cc1C#N [Example 148, 5-{6-(4-cyanophenyl)-8-[4-(dimethylamino)piperidin-1-yl]imidazo[1,5-a]pyrazin-5-yl}-2-methoxynicotinonitrile] | ≤ 50 nM |
| Cc1ccc(-c2c(-c3ccc(C#N)cc3)nc(N3CCC(N(C)C)CC3)c3cncn23)c(CO)c1 [Example 92, 4-{8-[4-(dimethylamino)piperidin-1-yl]-5-[2-(hydroxymethyl)-4-methylphenyl]imidazo[1,5-a]pyrazin-6-yl}benzonitrile] | ≤ 50 nM |
| CN(C)C1CCN(c2nc(-c3ccc(C#N)cc3)c(-c3cnc4c(cnn4C)c3)n3cncc23)CC1 [Example 50, 4-[8-[4-(dimethylamino)piperidin-1-yl]-5-(1-methyl-1H-pyrazolo[3,4-b]pyridin-5-yl)imidazo[1,5-a]pyrazin-6-yl]benzonitrile] | ≤ 50 nM |
| CN1CCC[C@@H](COc2nc(-c3ccc(C#N)cc3)c(-c3cc(F)c(CO)c(F)c3)n3cncc23)C1 [Example 47, 4-(5-[3,5-difluoro-4-(hydroxymethyl)phenyl]-8-{[(3R)-1-methylpiperidin-3-yl]methoxy}imidazo[1,5-a]pyrazin-6-yl)benzonitrile] | ≤ 50 nM |
| Cn1ncc2cc(-c3c(-c4ccc(C#N)cc4)nc(OC[C@@H]4CCCN(CCC#N)C4)c4cncn34)cnc21 [Example 38, 4-[8-{[(3R)-1-(2-cyanoethyl)piperidin-3-yl]methoxy}-5-(1-methyl-1H-1-pyrazolo[3,4-b]pyridin-5-yl)imidazo[1,5-a]pyrazin-6-yl]benzonitrile] | ≤ 50 nM |
| CN1CCC[C@@H](COc2cc(-c3ccc(C#N)cc3)c(-c3cnc(N4CCOCC4)c(F)c3)n3cncc23)C1 [Example 78, 4-(5-(5-fluoro-6-morpholin-4-ylpyridin-3-yl)-8-{[(3R)-1-methylpiperidin-3-yl]methoxy}imidazo[1,5-a]pyridin-6-yl)benzonitrile] | ≤ 50 nM |
| CN1CCC[C@@H](COc2cc(-c3ccc(C#N)cc3)c(-c3ccc4c(c3)CC(=O)N4C)n3cncc23)C1 [Example 64, (R)-4-(5-(1-methyl-2-oxoindolin-5-yl)-8-((1-methylpiperidin-3-yl)methoxy)imidazo[1,5-a]pyridin-6-yl)benzonitrile] | ≤ 50 nM |
| CN(C)C1CCN(c2nc(-c3ccc(C#N)cc3)c(-c3ccc4c(cnn4C)c3)n3cncc23)CC1 [Example 100, 4-[8-[4-(dimethylamino)piperidin-1-yl]-5-(1-methyl-1H-indazol-5-yl)imidazo[1,5-a]pyrazin-6-yl]benzonitrile] | ≤ 50 nM |
| CN(C)C1CCN(c2nc(-c3ccc(C#N)cc3)c(-c3ccc4c(c3)ncn4C)n3cncc23)CC1 [Example 83, 4-[8-[4-(dimethylamino)piperidin-1-yl]-5-(1-methyl-1H-benzimidazol-5-yl)imidazo[1,5-a]pyrazin-6-yl]benzonitrile] | ≤ 50 nM |
| CCN1CCC[C@@H](COc2cc(-c3ccc(C#N)cc3)c(-c3cnc4c(c3)OCCO4)n3cncc23)C1 [Example 67, (R)-4-(5-(2,3-dihydro-[1,4]dioxino[2,3-b]pyridin-7-yl)-8-((1-ethylpiperidin-3-yl)methoxy)imidazo[1,5-a]pyridin-6-yl)benzonitrile] | ≤ 50 nM |
| Cn1ncc2cc(-c3c(-c4ccc(C#N)cc4)nc(OC[C@@H]4CCCN(CCO)C4)c4cncn34)cnc21 [Example 37, 4-[8-{[(3R)-1-(2-hydroxyethyl)piperidin-3-yl]methoxy}-5-(1-methyl-1H-1-pyrazolo[3,4-b]pyridin-5-yl)imidazo[1,5-a]pyrazin-6-yl]benzonitrile] | ≤ 50 nM |
| CN(C)C1CCN(c2nc(-c3ccc(C#N)cc3)c(-c3ccc4nccnc4c3)n3cncc23)CC1 [Example 103, 4-(8-(4-(dimethylamino)piperidin-1-yl)-5-(quinoxalin-6-yl)imidazo[1,5-a]pyrazin-6-yl)benzonitrile] | ≤ 50 nM |
| CN1CCC[C@@H](COc2cc(-c3ccc(C#N)cc3)c(-c3ccc(N4CCCC4=O)nc3)n3cncc23)C1 [Example 71, (R)-4-(8-((1-methylpiperidin-3-yl)methoxy)-5-(6-(2-oxopyrrolidin-1-yl)pyridin-3-yl)imidazo[1,5-a]pyridin-6-yl)benzonitrile] | ≤ 50 nM |
| Cc1ccc(-c2c(-c3ccc([N+](=O)[O-])cc3)cc(OC[C@@H]3CCNC3)c3cncn23)cc1 [Example 3, 5-(4-methylphenyl)-6-(4-nitrophenyl)-8-[(3R)-pyrrolidin-3-ylmethoxy]imidazo[1,5-a]pyridine] | ≤ 50 nM |
| CN(C)C1CCN(c2nc(-c3ccc(C#N)cc3)c(-c3cnc4c(ccn4C)c3)n3cncc23)CC1 [Example 84, 4-(8-(4-(dimethylamino)piperidin-1-yl)-5-(1-methyl-1H-pyrrolo[2,3-b]pyridin-5-yl)imidazo[1,5-a]pyrazin-6-yl)benzonitrile] | ≤ 50 nM |
| CC(O)CN1CCC[C@@H](COc2cc(-c3ccc(C#N)cc3)c(-c3ccc4nccnc4c3)n3cncc23)C1 (stereo partly drawn) [Example 120, 4-(8-(((3R)-1-(2-hydroxypropyl)piperidin-3-yl)methoxy)-5-(quinoxalin-6-yl)imidazo[1,5-a]pyridin-6-yl)benzonitrile] | ≤ 50 nM |
| CN(C)C1CCN(c2nc(-c3ccc(C#N)cc3)c(-c3ccc4ncccc4c3)n3cncc23)CC1 [Example 145, 4-{8-[4-(dimethylamino)piperidin-1-yl]-5-quinolin-6-ylimidazo[1,5-a]pyrazin-6-yl}benzonitrile] | ≤ 50 nM |
| CN1C(=O)OCc2cc(-c3c(-c4ccc(C#N)cc4)nc(N4CCC(N(C)C)CC4)c4cncn34)ccc21 [Example 106, 4-[8-[4-(dimethylamino)piperidin-1-yl]-5-(1-methyl-2-oxo-1,4-dihydro-2H-3,1-benzoxazin-6-yl)imidazo[1,5-a]pyrazin-6-yl]benzonitrile] | ≤ 50 nM |
| Cc1ccc(-c2c(-c3ccc(C#N)cc3)cc(OC[C@@H]3CCCN(C)C3)c3cncn23)cn1 [Example 125, 4-[8-{[(3R)-1-methylpiperidin-3-yl]methoxy}-5-(6-methylpyridin-3-yl)imidazo[1,5-a]pyridin-6-yl]benzonitrile] | ≤ 50 nM |
| CCOc1ccc(-c2c(-c3ccc(C#N)cc3)nc(N3CCC(N(C)C)CC3)c3cncn23)cn1 [Example 99, 4-[8-[4-(dimethylamino)piperidin-1-yl]-5-(6-ethoxypyridin-3-yl)imidazo[1,5-a]pyrazin-6-yl]benzonitrile] | ≤ 50 nM |
| CN1CCC[C@@H](COc2cc(-c3ccc(C#N)cc3)c(-c3ccc4nccnc4c3)n3cncc23)C1 [Example 56, (R)-4-(8-((1-methylpiperidin-3-yl)methoxy)-5-(quinoxalin-6-yl)imidazo[1,5-a]pyridin-6-yl)benzonitrile] | ≤ 50 nM |
